This note sets out measurements from patent publication US4677111A, “N-benzoyl-N'-(3-nitrophenyl) urea compounds, and antitumorous compositions containing them” (Ishihara Sangyo Kaisha Ltd., priority 1984, dated 1987).

Read-outs that look alike come from different tables or passages of the source.

Series [1] has as its system p-388 leukemia cells. Put plainly: Test Example 1 (Intraperitoneal-intraperitoneal) antitumour activity, increase life span. Conditions: Mus musculus, P388, ip, 720 h. The series is classed as in vivo, BDF1 mice. The procedure:
To BDF1 mice, p-388 leukemia cells were intraperitoneally inoculated in an amount of 1×10^6 cells/mouse. A test drug was intraperitoneally administered twice, i.e. one day and four days after the inoculation. […] The increase life span ILS (%) of each treated group was obtained with the number of survival days of mice of the control group to which a physiological saline was administered, being evaluated as 0. The drugs were dispersions obtained by adding small amounts of surfactants (e.g. Tween-80) to the test compounds.
ILS (%)*: Increase Life Span, calculated in accordance with the following
formula: ILS (%) = MST100, where MST is the ratio of median survival time
of test and control animals.

Series [2] deals with p-388 leukemia cells. The experiment in a line: Test Example 2 (intraperitoneal-oral) antitumour activity, increase life span. In kind it is in vivo, BDF1 mice. Conditions: oral drug, days 1 and 4. How it is done:
A test drug was orally administered twice i.e. one day and four days after the inoculation.
The mixture was pulverized in a wet system by a sand mill using glass beads (80% of particles having a particle size of not larger than 2 μm). Then, 5 parts by weight of xanthane gum (2% solution) was added thereto to obtain an aqueous suspension.

A further series is described as follows: Acute toxicity, LD50. Conditions: mouse, in vivo, ip; ddY mice, intraperitoneal, Formulation Example 4. How it is done:
To ddY mice (10 animals), a drug containing one of Compound Nos. 1-4, 7, 9 and 10 of the present invention formulated in accordance with Formulation Example 4 was intraperitoneally administered, and the LD50 value was measured and found to be at least 100 mg/kg in each case, and the LD50 value of Compound No. 6 of the invention found to be at least 50 mg/kg.
The Compound No. 2 of the present invention was preliminarily pulverized by a centrifugal pulverizer. On the other hand, 5 parts by weight of polyoxyethylene (60) hardened castor oil, 0.2 part by weight of silicone and 0.3 part by weight of a polyoxyethylene-polyoxypropylene block polymer were added to 79.5 parts by weight of a physiological saline to obtain an aqueous solution, to which 10 parts by weight of the above pulverized Compound No. 2 of the present invention was added. The mixture was pulverized in a wet system by a sand mill using glass beads (80% of particles having a particle size of not larger than 2 μm). Then, 5 parts by weight of xanthane gum (2% solution) was added thereto to obtain an aqueous suspension.

Where [3] appears, read: read-out: ILS (increase life span).
Setting [4] is: i.p. drug, days 1 and 4, 100 mg/kg/day, read-out: ILS (increase life span).

Regarding `O=c1[nH]cc(F)c(=O)[nH]1` [5-Fluorouracil, reference compound], the ILS at 60 mg/kg/day with p-388 leukemia cells [1] (setting [3]) amounted to 85%.

As to `O=C(NC(=O)c1ccccc1Cl)Nc1ccc(Oc2ncc(Cl)cn2)c(Cl)c1` [Comparative Compound No. 1, N--(2chlorobenzoyl)-N'--[3chloro-4-(5-chloro-2-pyrimidinyloxy)phenyl]urea], in the series with p-388 leukemia cells [1] (setting [4]), the ILS at 100 mg/kg/day is 33%. Besides, the “ILS (increase life span)” value amounted to 11% with p-388 leukemia cells [2] (800 mg/kg/day) and 24% with p-388 leukemia cells [2] (1600 mg/kg/day).

Turning to `O=C(NC(=O)c1ccccc1Br)Nc1ccc(Oc2ncc(I)cn2)c(Cl)c1` [Comparative Compound No. 2, N--(2bromobenzoyl)-N'--[3chloro-4-(5-iodo-2-pyrimidinyloxy)phenyl]urea], in the series on p-388 leukemia cells [1] (setting [4]), the ILS at 100 mg/kg/day is 65%. The figures for the “ILS (increase life span)” value in the series with p-388 leukemia cells [2] (400 mg/kg/day) and with p-388 leukemia cells [2] (800 mg/kg/day) were 4% and 2%, respectively.

In turn, `O=C(NC(=O)c1ccccc1Cl)Nc1ccc(Oc2ccc(Cl)nn2)c(Cl)c1` [Comparative Compound No. 3, N--(2chlorobenzoyl)-N'--[3chloro-4-(6-chloro-3-pyridazinyloxy)phenyl]urea, reference compound] yielded an ILS at 200 mg/kg/day in the series with p-388 leukemia cells [1] (i.p. drug, days 1 and 4) of 24%.

Take `O=C(NC(=O)c1ccccc1Cl)Nc1ccc(Oc2ccc(Br)nn2)c(Cl)c1` [Comparative Compound No. 4, N--(2chlorobenzoyl)-N'--[4(6-bromo-3-pyridazinyloxy)-3-chlorophenyl]urea, reference compound]: in the series with p-388 leukemia cells [1] (setting [4]), the ILS at 100 mg/kg/day was found to be 36%.

With `O=C(NC(=O)c1ccccc1[N+](=O)[O-])Nc1ccc(Oc2ccc(C(F)(F)F)cn2)c(Cl)c1` [Comparative Compound No. 5, reference compound], the ILS at 100 mg/kg/day in the series with p-388 leukemia cells [1] (setting [4]) stood at 70%.

Consider `O=C(NC(=O)c1ccccc1Cl)Nc1ccc(Oc2ccc(Br)cn2)c(Cl)c1` [Comparative Compound No. 6, N--(2chlorobenzoyl)-N'--[4(5-bromo-2-pyridyl-oxy)-3-chlorophenyl]urea, reference compound], for which the ILS at 200 mg/kg/day with p-388 leukemia cells [1] (i.p. drug, days 1 and 4) turned out to be 50%.

Regarding `O=C(NC(=O)c1ccccc1[N+](=O)[O-])Nc1ccc(Oc2ncc(I)cn2)c([N+](=O)[O-])c1` [Compound No. 1, N-(2-nitrobenzoyl)-N'-[4-(5-iodo-2-pyrimidinyloxy)-3-nitrophenyl]urea], the ILS at 50 mg/kg/day in the series on p-388 leukemia cells [1] (setting [3]) came out at 111%. For the same molecule, in “Acute toxicity, LD50”, the median lethal dose (LD50) is at least 100 mg/kg.

In the case of `O=C(NC(=O)c1ccccc1[N+](=O)[O-])Nc1ccc(Oc2ncc(Cl)cn2)c([N+](=O)[O-])c1` [Compound No. 2, N-(2-nitrobenzoyl)-N'-[4-(5-chloro-2-pyrimidinyloxy)-3-nitrophenyl]urea], the ILS at 50 mg/kg/day in the series with p-388 leukemia cells [1] (setting [3]) turned out to be 134%. Moreover, the “ILS (increase life span)” value in the series with p-388 leukemia cells [2] (200 mg/kg/day) amounted to 90%; with p-388 leukemia cells [2] (400 mg/kg/day), 108%. For the same molecule, the LD50 in “Acute toxicity, LD50” is at least 100 mg/kg.

With `O=C(NC(=O)c1ccccc1[N+](=O)[O-])Nc1ccc(Oc2ncc(Br)cn2)c([N+](=O)[O-])c1` [Compound No. 3, N-(2-nitrobenzoyl)-N'-[4-(5-bromo-2-pyrimidinyloxy)-3-nitrophenyl]urea], in the series with p-388 leukemia cells [1] (setting [3]), the ILS at 50 mg/kg/day amounted to 120%. In addition, the “ILS (increase life span)” value in the series on p-388 leukemia cells [2] (200 mg/kg/day) is 39%; in the series on p-388 leukemia cells [2] (400 mg/kg/day), 46%. Also, the LD50 in “Acute toxicity, LD50” was at least 100 mg/kg.

Turning to `O=C(NC(=O)c1ccccc1Cl)Nc1ccc(Oc2ncc(Cl)cn2)c([N+](=O)[O-])c1` [Compound No. 4, N-(2-chlorobenzoyl)-N'-[4-(5-chloro-2-pyrimidinyloxy)-3-nitrophenyl]urea], in the series on p-388 leukemia cells [1] (setting [3]), the ILS at 100 mg/kg/day was 102%. The median lethal dose (LD50) in the series “Acute toxicity, LD50” was at least 100 mg/kg.

As to `O=C(NC(=O)c1ccc(Cl)cc1[N+](=O)[O-])Nc1ccc(Oc2ncc(Cl)cn2)c([N+](=O)[O-])c1` [Compound No. 6, N-(4-chloro-2-nitrobenzoyl)-N'-[4-(5-chloro-2-pyrimidinyloxy)-3-nitrophenyl]urea], in the series with p-388 leukemia cells [1] (setting [3]), the ILS at 25 mg/kg/day amounted to 165%. For the same molecule, the LD50 in “Acute toxicity, LD50” is at least 50 mg/kg.

`O=C(NC(=O)c1ccccc1[N+](=O)[O-])Nc1ccc(Oc2ccc(Br)nn2)c([N+](=O)[O-])c1` [Compound No. 7, N-(2-nitrobenzoyl)-N'-[4-(6-bromo-3-pyridazinyloxy)-3-nitrophenyl]urea]: the ILS at 100 mg/kg/day in the series with p-388 leukemia cells [1] (setting [3]) was determined as 152%. The LD50 in the series “Acute toxicity, LD50” was at least 100 mg/kg.

For the molecule `O=C(NC(=O)c1ccccc1[N+](=O)[O-])Nc1ccc(Oc2ccc(C(F)(F)F)cn2)c([N+](=O)[O-])c1` [Compound No. 9, N-(2-nitrobenzoyl)-N'-[4-(5-trifluoromethyl-2-pyridyloxy)-3-nitrophenyl]urea], in the series with p-388 leukemia cells [1] (setting [3]), the ILS at 100 mg/kg/day stood at 119%. Further, the LD50 in the series “Acute toxicity, LD50” is at least 100 mg/kg.

On to `O=C(NC(=O)c1ccccc1[N+](=O)[O-])Nc1ccc(Oc2ccc(Cl)cn2)c([N+](=O)[O-])c1` [Compound No. 10, N-(2-nitrobenzoyl)-N'-[4-(5-chloro-2-pyridyloxy)-3nitrophenyl]urea], for which, in the series with p-388 leukemia cells [1] (setting [3]), the ILS at 100 mg/kg/day was 153%. This molecule also had an LD50 in the series “Acute toxicity, LD50” of at least 100 mg/kg.

As to `O=C(NC(=O)c1ccccc1[N+](=O)[O-])Nc1ccc(Oc2ncc(I)cn2)c(Cl)c1` [compound 7, N--(2nitrobenzoyl)-N'--[3chloro-4-(5-iodo-2-pyrimidinyloxy)phenyl]urea], the “ILS (increase life span)” value in the series on p-388 leukemia cells [2] (1600 mg/kg/day) is recorded as 41%.
